Assay results: patent publication US8173638B2 (Boehringer Ingelheim International GmbH, priority 2006, dated 2012)
Where two headings read alike, the source gives them in different places.

Biological target: T1, human CB2R (Homo sapiens, UniProt P34972)
T1 construct: host or cells: CHO cells
Experiment: CB2R mediated modulation of cAMP synthesis
Assay type: cell-based
Details: for Emax: 0.5 h, read-out: Agonist Efficacy (%); for agonistic activity: found through the use of the described assays (CB2 agonists), qualitative statement
How it was run: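 Forskolin (10 uM)-driven cAMP in human CB2R-expressing CHO cells, read with DiscoverX-XS kit after 30 min compound exposure at 37 °C, 1 mM IBMX, 0.25% BSA. 100% defined as forskolin cAMP relative to 1 uM CP55940 inhibition. Agonist EC50 via four-parameter logistic model.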

[1] = CHO cells expressing human CB2R, cAMP inhibited by 1 uM CP55940 defined as 100%

T1 sequence (P34972 whole entry): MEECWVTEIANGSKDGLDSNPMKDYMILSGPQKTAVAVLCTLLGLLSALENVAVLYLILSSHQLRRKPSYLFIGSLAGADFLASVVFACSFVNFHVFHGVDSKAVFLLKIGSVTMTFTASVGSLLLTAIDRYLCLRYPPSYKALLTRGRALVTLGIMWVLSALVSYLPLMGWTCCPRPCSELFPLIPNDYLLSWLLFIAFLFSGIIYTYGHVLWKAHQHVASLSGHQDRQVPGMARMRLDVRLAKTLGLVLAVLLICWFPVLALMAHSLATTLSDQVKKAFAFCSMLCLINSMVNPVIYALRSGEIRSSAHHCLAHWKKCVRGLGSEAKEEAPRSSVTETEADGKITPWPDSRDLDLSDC

SMILES	agonistic activity	other results
Cc1ccc(C(=O)N2CCCN(C(=O)Nc3ccc(C(C)(C)C)cc3)CC2)cc1 [Compound 122, 4-(4-Methyl-benzoyl)-[1,4]diazepane-1-carboxylic acid (4-tert-butyl-phenyl)-amide]		Emax [1]: 101%; EC50 (read-out: hCB2 cAMP EC50): 100 nM
O=C(Nc1ccc2ccccc2c1)N1CCCN(C(=O)c2ccc(Cl)cc2)CC1 [Compound 79, 4-(4-Chloro-benzoyl)-[1,4]diazepane-1-carboxylic acid naphthalen-2-ylamide]		Emax [1]: 100%; EC50 (read-out: hCB2 cAMP EC50): 46 nM
O=C(CC1CCOCC1)N1CCCN(C(=O)Nc2ccc3c(c2)OC(F)(F)O3)CC1 [4-(2-Tetrahydro-pyran-4-yl-acetyl)-[1,4]diazepane-1-carboxylic acid (2,2-difluoro-benzo[1,3]dioxol-5-yl)-amide]	agonistic activity	
O=C(Nc1ccc2ccccc2c1)N1CCCN(C(=O)c2ccc(Cl)c(Cl)c2)CC1 [Compound 86, 4-(3,4-Dichloro-benzoyl)-[1,4]diazepane-1-carboxylic acid naphthalen-2-ylamide]		Emax [1]: 92%; EC50 (read-out: hCB2 cAMP EC50): 52 nM
O=C(CC1CCCC1)N1CCCN(C(=O)Nc2ccc3ccccc3c2)CC1 [Compound 48, 4-(2-Cyclopentyl-acetyl)-[1,4]diazepane-1-carboxylic acid (2-naphthyl)-amide]		Emax [1]: 100%; EC50 (read-out: hCB2 cAMP EC50): 53 nM
O=C(CCC1CCCC1)N1CCCN(C(=O)Nc2cccc3ccccc23)CC1 [4-(3-Cyclopentyl-propionyl)-[1,4]diazepane-1-carboxylic acid naphthalen-1-ylamide]	agonistic activity	
CC(C)c1ccc(NC(=O)N2CCCN(C(=O)c3ccccn3)CC2)cc1 [4-(Pyridine-2-carbonyl)-[1,4]diazepane-1-carboxylic acid (4-isopropyl-phenyl)-amide]	agonistic activity	
CC(C)(C)c1cc(NC(=O)N2CCCN(C(=O)c3ccc(C(F)(F)F)cc3)CC2)no1 [Compound 154, 4-(4-Trifluoromethyl-benzoyl)-[1,4]diazepane-1-carboxylic acid (5-tert-butyl-isoxazol-3-yl)-amide]		EC50: 1.5 nM; Emax (CHO): 103%
CC(C)c1ccc(NC(=O)N2CCCN(C(=O)CC3CCCC3)CC2)cc1 [4-(2-Cyclopentyl-acetyl)-[1,4]diazepane-1-carboxylic acid (4-isopropyl-phenyl)-amide]	agonistic activity	
CC(C)(C)c1cc(NC(=O)N2CCCN(C(=O)N3CCSCC3)CC2)no1 [Compound 203, 4-(Thiomorpholine-4-carbonyl)-[1,4]diazepane-1-carboxylic acid (5-tert-butyl-isoxazol-3-yl)-amide]		Emax [1]: 107%; EC50 (read-out: hCB2 cAMP EC50): 62 nM
CC(=O)N1CCc2ccc(NC(=O)N3CCCN(C(=O)CC4CCCC4)CC3)cc21 [4-(2-Cyclopentyl-acetyl)-[1,4]diazepane-1-carboxylic acid (1-acetyl-2,3-dihydro-1H-indol-6-yl)-amide]	agonistic activity	
Cn1c(NC(=O)N2CCCN(C(=O)C3CCOCC3)CC2)nc2ccccc21 [4-(Tetrahydro-pyran-4-carbonyl)-[1,4]diazepane-1-carboxylic acid (1-methyl-1H-benzoimidazol-2-yl)-amide]	agonistic activity	
CC(c1ccc(NC(=O)N2CCCN(C(=O)N3CCS(=O)(=O)CC3)CC2)cc1)C(F)(F)F (centres unmarked) [4-(1,1-Dioxo-1λ^6-thiomorpholine-4-carbonyl)-[1,4]diazepane-1-carboxylic acid [4-(2,2,2-trifluoro-1-methyl-ethyl)-phenyl]-amide]	agonistic activity	
O=C(Nc1nc(-c2ccccc2)cs1)N1CCCN(C(=O)C2CCOCC2)CC1 [4-(Tetrahydro-pyran-4-carbonyl)-[1,4]diazepane-1-carboxylic acid (4-phenyl-thiazol-2-yl)-amide]	agonistic activity	
CS(=O)(=O)c1ccc(NC(=O)N2CCCN(C(=O)CC3CCCC3)CC2)cc1 [4-(2-Cyclopentyl-acetyl)-[1,4]diazepane-1-carboxylic acid (4-methanesulfonyl-phenyl)-amide]	agonistic activity	
CCCCc1ccc(NC(=O)N2CCCN(C(=O)C3CCOCC3)CC2)cc1 [4-(Tetrahydro-pyran-4-carbonyl)-[1,4]diazepane-1-carboxylic acid (4-butyl-phenyl)-amide]	agonistic activity	
O=C(Nc1ccc(C(F)(F)F)cc1)N1CCCN(C(=O)c2ccc(C(F)(F)F)cc2)CC1	agonistic activity	
CN(C)c1ccc(NC(=O)N2CCCN(C(=O)CCC3CCCC3)CC2)cc1 [4-(3-Cyclopentyl-propionyl)-[1,4]diazepane-1-carboxylic acid (4-dimethylamino-phenyl)-amide]	agonistic activity	
COC1CCC(C(=O)N2CCCN(C(=O)Nc3cc(C(C)(C)C)on3)CC2)CC1 (centres unmarked) [Compound 155, 4-(4-Methoxy-cyclohexanecarbonyl)-[1,4]diazepane-1-carboxylic acid (5-tert-butyl-isoxazol-3-yl)-amide]		Emax (CHO): 101%; EC50 (read-out: hCB2 cAMP EC50): 110 nM
CS(=O)(=O)c1ccc(NC(=O)N2CCCN(C(=O)CC3CCOCC3)CC2)cc1 [4-(2-Tetrahydro-pyran-4-yl-acetyl)-[1,4]diazepane-1-carboxylic acid (4-methanesulfonyl-phenyl)-amide]	agonistic activity	
CCC(C)c1cc(NC(=O)N2CCCN(C(=O)C3CCOCC3)CC2)on1 (centres unmarked) [4-(Tetrahydro-pyran-4-carbonyl)-[1,4]diazepane-1-carboxylic acid (3-sec-butyl-isoxazol-5-yl)-amide]	agonistic activity	
CC(C)c1ccc(NC(=O)N2CCCN(C(=O)c3ccc(Cl)cc3)CC2)cc1 [4-(4-Chloro-benzoyl)-[1,4]diazepane-1-carboxylic acid (4-isopropyl-phenyl)-amide]	agonistic activity	
CC(C)(C)c1ccc(NC(=O)N2CCCN(C(=O)c3ccc(Cl)c(Cl)c3)CC2)cc1 [Compound 110, 4-(3,4-Dichloro-benzoyl)-[1,4]diazepane-1-carboxylic acid (4-tert-butyl-phenyl)-amide]		Emax [1]: 97%; EC50 (read-out: hCB2 cAMP EC50): 64 nM
O=C(CCC1CCCC1)N1CCCN(C(=O)NC2CCCCC2)CC1 [4-(3-Cyclopentyl-propionyl)-[1,4]diazepane-1-carboxylic acid cyclohexylamide]	agonistic activity	

Second part, led by results:

agonistic activity	SMILES	other results
agonistic activity	O=C(Nc1ccc(C(F)(F)F)cc1)N1CCCN(C(=O)C2CCOCC2)CC1 [4-(Tetrahydro-pyran-4-carbonyl)-[1,4]diazepane-1-carboxylic acid (4-trifluoromethyl-phenyl)-amide]	
agonistic activity	O=C(Nc1ccc(SC(F)(F)F)cc1)N1CCCN(C(=O)C2CCOCC2)CC1 [4-(Tetrahydro-pyran-4-carbonyl)-[1,4]diazepane-1-carboxylic acid (4-trifluoromethylsulfanyl-phenyl)-amide]	
agonistic activity	CC(C)(C)c1cc(NC(=O)N2CCCN(C(=O)CN3CCS(=O)(=O)CC3)CC2)on1 [4-[2-(1,1-Dioxo-1λ^6-thiomorpholin-4-yl)-acetyl]-[1,4]diazepane-1-carboxylic acid (3-tert-butyl-isoxazol-5-yl)-amide]	
